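The compound was tested at five concentrations on cells cultured in 96-well plates, with a 48-hour exposure period. GI50 marks 50% less growth.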 The source made the active and inactive calls. Cut-off read from the data, not from the text of the source: active = GI50 up to about 1.1 µM and inactive = higher.

Four molecules from ChEMBL document CHEMBL1201862, “PubChem BioAssay data set” (2004) can be followed below.

What all share (test): DTP human tumour cell line panel, 48 h
In assay [1] the test system is TK-10.
Assay [2] relates to HCT-15.
In assay [3] the test system is MDA-N.
Assay [4] relates to ACHN.
Assay [5] relates to SK-MEL-2.
The test system of assay [6] is SNB-19.
Assay [7] deals with MDA-MB-231.
For assay [8], the system named is MCF7.
The test system of assay [9] is PC-3.
For assay [10], the system named is NCI-H522.
In assay [11] the test system is SN12C.
For assay [12], the system named is LOX IMVI.
Assay [13] deals with U-251.
The subject of assay [14] is SK-MEL-28.
In assay [15] the test system is NCI-H460.
For assay [16], the system named is NCI-H226.
Assay [17] concerns HCT-116.
The subject of assay [18] is MDA-MB-435.
In assay [19] the test system is IGROV-1.
In assay [20] the test system is CAKI-1.

`CC1(C)OCC(C2OC(OC(=O)c3ccc([N+](=O)[O-])cc3)C3OC(C)(C)OC23)O1` (stereo not given): the GI50 is > 100 µM (inactive) in [1]; more than 100 µM in [2]; > 100 µM (inactive) in assay [3]; 60.5 µM (inactive) in assay [4]; > 100 µM (inactive) in assay [5]; 59 µM (inactive) in [6]. The GI50 in [7] was > 100 µM (inactive); in assay [8], > 100 µM (inactive); in [9] it was > 100 µM (inactive); in [10], 75.5 µM (inactive); in assay [11], > 100 µM (inactive); in assay [12], > 100 µM (inactive). Further, the GI50 in assay [13] was 49 µM (inactive); in assay [14] it was > 100 µM (inactive); in assay [15], > 100 µM (inactive); in assay [16], > 100 µM (inactive); in assay [17] it was > 100 µM (inactive); in [18], > 100 µM (inactive). The GI50 in [19] and in assay [20] was > 100 µM (inactive) each time.

For `CCOC(=O)c1nc2cc(C(F)(F)F)ccc2nc1Oc1ccc(C#N)cc1`, the GI50 in assay [1] was > 100 µM (inactive); in assay [2], more than 100 µM; in assay [3] it was > 100 µM (inactive); in [4] it was > 100 µM (inactive); in [5], > 100 µM (inactive); in [6] it was > 100 µM (inactive). Also, the GI50 in assay [7] is > 100 µM (inactive); in assay [8], > 100 µM (inactive); in assay [9], > 100 µM (inactive); in assay [10], > 100 µM (inactive); in [11], > 100 µM (inactive); in assay [12] it was 71.8 µM (inactive). The GI50 in assay [13] was > 100 µM (inactive); in assay [14] it was > 100 µM (inactive); in assay [15], > 100 µM (inactive); in assay [16], > 100 µM (inactive); in [17] it was 16.8 µM (inactive); in [18] it was > 100 µM (inactive). Further, the GI50 in assay [19] and in [20] was > 100 µM (inactive) throughout.

As to `O=c1oc2nc(-c3ccccc3)cc(C(F)(F)F)c2n1Cc1ccccc1`, the GI50 was 46.6 µM (inactive) in assay [1]; 1.87 µM in assay [2]; 0.689 µM (active) in assay [3]; 11.7 µM (inactive) in assay [4]; 6.43 µM (inactive) in assay [5]; 6.52 µM (inactive) in assay [6]. Besides, the GI50 in assay [7] was > 24.4 µM (inactive); in [8] it was 0.995 µM (active); in [9], 3.46 µM (inactive); in assay [10], 4.33 µM (inactive); in [11], 5.9 µM (inactive); in assay [12], 9.71 µM (inactive). Also, the GI50 in assay [13] was 4.8 µM (inactive); in assay [14] it was 50.1 µM (inactive); in assay [15] it was > 100 µM (inactive); in assay [16], > 100 µM (inactive); in [17] it was 3.13 µM (inactive); in assay [18], 0.659 µM (active). Also, the GI50 in assay [19] is 13.4 µM (inactive); in assay [20], 7.8 µM (inactive).

Consider `Cc1ccc(C(=O)CC(O)(C(F)(F)F)C(F)(F)F)cc1[N+](=O)[O-]`, for which the GI50 in [1] is 17.6 µM (inactive); in assay [2], 3.92 µM; in [3], 10.2 µM (inactive); in assay [4], 15.5 µM (inactive); in assay [5] it was 13.7 µM (inactive); in assay [6] it was 9.06 µM (inactive). In addition, the GI50 was 7.55 µM (inactive) in assay [7]; 3.14 µM (inactive) in assay [8]; 11.3 µM (inactive) in assay [9]; 0.331 µM (active) in assay [10]; 10 µM (inactive) in [11]; 2.07 µM (inactive) in assay [12]. In addition, the GI50 in [13] is 14.2 µM (inactive); in assay [14], 8.15 µM (inactive); in assay [15], 5.78 µM (inactive); in [16], 20.2 µM (inactive); in assay [17] it was 5.3 µM (inactive); in [18] it was 8.41 µM (inactive). Further, the GI50 in assay [19] was 5.05 µM (inactive); in assay [20], 2.36 µM (inactive).

In general, GI50 refers to the concentration giving 50% growth inhibition.
